From patent publication US7867980B2, “Lincosamide derivatives and antimicrobial agents comprising the same as active ingredient” (Meiji Seika Kaisha, Ltd., priority 2007, dated 2011)
≈ marks a conversion by molar mass, not a printed value.

Columns and labels:
Experiment in all cases: Antimicrobial activity, minimum growth inhibitory concentration (MIC), agar dilution
Assay type in all cases: cell-based
S. pneumoniae PRC-53 = conditions: inoculum about 10^6 CFU/ml; for minimum growth inhibitory concentration (MIC): Sensitivity disk agar-N+5% horse blood
Method: (§1) For representative compounds among lincomycin derivatives according to the present invention, the minimum growth inhibitory concentration (MIC, μg/ml) against various pneumococci was measured according to the method described in CHEMOTHERAPY, vol. […] Sensitivity disk agar-N+5% horse blood was used as the medium for the measurement. The amount of bacteria inoculated was about 10^6 CFU/ml.

S. pneumoniae 225 = conditions: Sensitivity disk agar-N+5% horse blood, inoculum about 10^6 CFU/ml
Method: as §1

S. pneumoniae 1820 = conditions: Sensitivity disk agar-N+5% horse blood, inoculum about 10^6 CFU/ml
Method: as §1

S. pneumoniae DP1 TypeI = conditions: Sensitivity disk agar-N+5% horse blood, inoculum about 10^6 CFU/ml
Method: as §1

S. pneumoniae 1700 = conditions: Sensitivity disk agar-N+5% horse blood, inoculum about 10^6 CFU/ml
Method: as §1

S. pneumoniae PRC-206 = conditions: inoculum about 10^6 CFU/ml; for minimum growth inhibitory concentration (MIC): Sensitivity disk agar-N+5% horse blood
Method: as §1

S. pneumoniae IP692 = conditions: Sensitivity disk agar-N+5% horse blood, inoculum about 10^6 CFU/ml
Method: as §1

S. pneumoniae TH-662 = conditions: inoculum about 10^6 CFU/ml; for minimum growth inhibitory concentration (MIC): Sensitivity disk agar-N+5% horse blood
Method: as §1

S. pneumoniae 1913 = conditions: Sensitivity disk agar-N+5% horse blood, inoculum about 10^6 CFU/ml
Method: as §1

SMILES | minimum growth inhibitory concentration (MIC) (S. pneumoniae PRC-53) | minimum growth inhibitory concentration (MIC) (S. pneumoniae 225) [µg/mL] | minimum growth inhibitory concentration (MIC) (S. pneumoniae 1820) [µg/mL] | minimum growth inhibitory concentration (MIC) (S. pneumoniae DP1 TypeI) | minimum growth inhibitory concentration (MIC) (S. pneumoniae 1700) [µg/mL] | minimum growth inhibitory concentration (MIC) (S. pneumoniae PRC-206) [µg/mL] | minimum growth inhibitory concentration (MIC) (S. pneumoniae IP692) | minimum growth inhibitory concentration (MIC) (S. pneumoniae TH-662) [µg/mL] | minimum growth inhibitory concentration (MIC) (S. pneumoniae 1913) | MIC (S. pneumoniae PRC-53; Streptococcus pneumoniae, PRC53, Sensitivity disk agar-N+5% horse blood) [ng/mL] | MIC (S. pneumoniae 225; Streptococcus pneumoniae) [µg/mL] | MIC (S. pneumoniae 1820; Streptococcus pneumoniae) [µg/mL] | MIC (S. pneumoniae DP1 TypeI; Streptococcus pneumoniae, DP1TYPEI) [µg/mL] | MIC (S. pneumoniae 1700; Streptococcus pneumoniae) [µg/mL] | MIC (S. pneumoniae PRC-206; Streptococcus pneumoniae, PRC206, Sensitivity disk agar-N+5% horse blood) [µg/mL] | MIC (S. pneumoniae IP692; Streptococcus pneumoniae) [µg/mL] | MIC (S. pneumoniae TH-662; Streptococcus pneumoniae, TH662, Sensitivity disk agar-N+5% horse blood) [µg/mL] | MIC (S. pneumoniae 1913; Streptococcus pneumoniae) [µg/mL]
CCCC1CC(C(=O)NC(C(C)Sc2ccc(-c3nc(C(=O)N(C)C)cs3)cc2)C2OC(SC)C(O)C(O)C2O)N(C)C1 (stereo not drawn) [Compound 17, 7-Deoxy-7-(4-(4-(dimethylcarbamoyl)-thiazol-2-yl)phenylthio)-7-epilincomycin] | 0.015 µg/mL | 32 | 4 | 0.03 µg/mL | 2 | 4 | 0.03 µg/mL | 2 | 0.03 µg/mL |  |  |  |  |  |  |  |  | 
CCC[C@@H]1CCN[C@H](C(=O)N[C@@H]([C@H]2O[C@H](SC)[C@H](O)[C@@H](O)[C@H]2O)[C@H](C)Sc2ccc(-c3cncnc3)cc2)C1 [Compound 59, Methyl 7-deoxy-7-epi-6-N-((2S,4R)-4-propyl)pipecoloyl-7-(4-(pyrimidin-5-yl)phenylthio)-1-thio-α-lincosamide] | ≦0.008 μg/ml | 1 | 0.25 | ≦0.008 μg/ml | 0.13 | 0.25 | ≦0.008 μg/ml | 0.13 | 0.015 µg/mL |  |  |  |  |  |  |  |  | 
CS[C@H]1O[C@H]([C@H](NC(=O)[C@@H]2C[C@H](CC3CC3)CCN2)[C@H](C)Sc2ccc(C3C=CCN(C)C3)nc2)[C@H](O)[C@H](O)[C@H]1O (stereo partly drawn) [Compound 93, Methyl 6-N-((2S,4R)-4-cyclopropylmethyl)-pipecoloyl-7-deoxy-7-epi-7-(6-(1-methyl-1,2,3,6-tetrahydropyridin-3-yl)pyridin-3-ylthio)-1-thio-α-lincosamide] | 0.06 µg/mL | 1 | 1 | 0.06 µg/mL | 0.5 | 1 | 0.13 µg/mL | 0.5 | 0.13 µg/mL |  |  |  |  |  |  |  |  | 
CCC[C@@H]1C[C@@H](C(=O)N[C@@H]([C@H]2O[C@H](SC)[C@H](O)[C@@H](O)[C@H]2O)[C@H](C)Sc2ccc(-c3cncnc3)c(F)c2)N(C)C1 [Compound 3, 7-Deoxy-7-epi-7-(3-fluoro-4-(pyrimidin-5-yl)phenylthio)lincomycin] | ≦0.008 μg/ml | 8 | 2 | 0.015 µg/mL | 2 | 2 | 0.03 µg/mL | 0.25 | ≦0.008 μg/ml |  |  |  |  |  |  |  |  | 
CCC[C@@H]1CCN(C)[C@H](C(=O)N[C@@H](C2OC(SC)C(O)C(O)C2O)[C@H](C)Sc2ccc(-c3cncnc3)cc2)C1 (stereo partly drawn) [Compound 65] |  |  |  |  |  |  |  |  |  | ≤ 8 | 4 (≈ 6.77 µM) | 2 (≈ 3.39 µM) | 0.015 (≈ 0.0254 µM) | 2 (≈ 3.39 µM) | 2 (≈ 3.39 µM) | 0.015 (≈ 0.0254 µM) | 0.5 (≈ 0.846 µM) | 0.015 (≈ 0.0254 µM)
